Assay results from patent US7265130B2, “NPY Y5 antagonist” (Shionogi & Co., Ltd., priority 1999, dated 2007).

Legend:
human NPY Y5 receptor [1] = molecular target: T1, human NPY Y5 receptor (Homo sapiens, UniProt Q15761); assay: cAMP production inhibitory activity in CHO cells; assay type: cell-based; conditions: against 50 nM NPY inhibition of forskolin stimulated cAMP, CHO cells expressing human NPY Y5 receptor
T1 construct: expressed in transfected cells
T1 sequence (Q15761 1-445): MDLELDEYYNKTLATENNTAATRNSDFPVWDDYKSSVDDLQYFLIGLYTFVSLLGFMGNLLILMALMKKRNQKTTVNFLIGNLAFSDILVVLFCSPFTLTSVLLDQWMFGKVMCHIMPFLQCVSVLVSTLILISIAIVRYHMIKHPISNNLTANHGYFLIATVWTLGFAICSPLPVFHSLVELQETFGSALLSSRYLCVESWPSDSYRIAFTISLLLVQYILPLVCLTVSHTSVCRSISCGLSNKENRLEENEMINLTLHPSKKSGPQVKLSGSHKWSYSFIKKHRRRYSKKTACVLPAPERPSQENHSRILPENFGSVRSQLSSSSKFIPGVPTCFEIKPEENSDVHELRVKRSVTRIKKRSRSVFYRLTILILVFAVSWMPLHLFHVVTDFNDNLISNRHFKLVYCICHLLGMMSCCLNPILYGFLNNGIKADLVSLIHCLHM
Experimental: Experiment 2 cAMP production inhibitory activity in CHO cells
After CHO cells expressing human NPY Y5 receptor were incubated in the presence of 2.5 mM isobutylmethylxanthine (SIGMA) at 37° C. for 20 min., the compound of the present invention was added and incubated for 5 min. Then, 50 nM NPY and 10 μM forskolin (SIGMA) were added to the cells and incubated for 30 min. After the reaction was terminated by adding 1N HCl, the amount of cAMP in the supernatant was measured with EIA kit (Amersham LIFE SCIENCE).

human NPY Y5 receptor [2] = molecular target: T1, human NPY Y5 receptor; assay: Affinity for NPY Y5 receptor ([125I] peptide YY binding, CHO cell membranes); conditions: inhibition of specific [125I] peptide YY binding, membranes of CHO cells expressing NPY Y5 receptor
Text: Experiment 1 Affinity for NPY Y5 Receptor
cDNA sequence encoding a human NPY Y5 receptor (WO096/16542) was cloned in the expression vector pME18S (Takebe et al. Mol. Cell. Biol. 8, 8957). The obtained expression vector was transfected into a host CHO cells by using a Lipofect AMINE reagent (Trademark, Gibco BRL Co., Ltd.) according to an instruction protocol to obtain the cells that stably express NPY Y5 receptor.
The membranes prepared from the above CHO cells expressing NPY Y5 receptor, the compound of the present invention and 30,000 cpm [^125I] peptide YY (60 pM of final concentration: Amersham) were incubated in the assay buffer (20 mM HEPES-Hanks buffer containing 0.1% bovine serum albumin, pH 7.4) at 25° C. for 2 hours, and then the mixture was filtered with a glassfilter GF/C treated with polyethyleneimine. After the glassfilter was washed with 50 mM Tris-HCl buffer (pH 7.4), the radioactivity on the filter was measured with a gamma counter. The non-specific binding was detected in the presence of 200 nM of peptide YY. The 50% inhibitory concentration of the test compound against the specific peptide YY binding (IC50 value) was calculated (Inui, A. et al. Endocrinology 131, 2090-2096 (1992)).

Row | Compound | IC50 (human NPY Y5 receptor [1]) [nM] | IC50 (human NPY Y5 receptor [2]) [nM]
1 | CCCCc1ccc(NC(=O)c2ccc(N[S+]([O-])C(C)(C)Cl)cc2)cc1 (centres unmarked) [Compound I-92] | 61 | 7
2 | CCCCc1ccc(NC(=O)c2ccc(N[S+]([O-])C(C)(C)C)cc2)cc1 (centres unmarked) [Compound I-101] | 38 | 3.9
3 | CCCCc1ccc(NC(=O)c2ccc(NS(=O)(=O)C(C)(C)C)cc2)cc1 [Compound I-102] | 14 | 1.7
4 | CCCCc1ccc(NC(=O)c2ccc(NS(=O)(=O)C(C)(C)Cl)cc2)cc1 [Compound I-106] | 29 | 6.4
5 | CCCCc1ccc(NC(=O)CCCCNS(=O)(=O)C(C)(C)CC)cc1 [Compound I-109] | 3.2 | 1.2
6 | CCCCc1ccc(NC(=O)CCCCNS(=O)(=O)CC(C)C)cc1 [Compound I-110] | 13.6 | 4.3
7 | CCCCc1ccc(NC(=O)CCCCNS(=O)(=O)C(C)CC)cc1 (centres unmarked) [Compound I-111] | 6.1 | 1.8
8 | CCCCc1ccc(NC(=S)CCCCNS(=O)(=O)CC(C)C)cc1 [Compound I-114] | 30 | 7
9 | CCCCOc1ccc(NC(=O)CCCCNS(=O)(=O)C(C)CC)cc1 (centres unmarked) [Compound I-116] | 11 | 1.2
10 | CCCCc1ccc(NC(=O)N2CCC(NS(=O)(=O)C(C)(C)C)CC2)cc1 [Compound I-120, 4-t-butylsulfonylaminopiperidine-1-carboxylic acid(4-butylphenyl)amide] | 4.8 | 1.4
11 | CCCCc1ccc(NC(=O)C23CCC(NS(=O)(=O)C(C)(C)C)(CC2)CC3)cc1 [Compound I-123] | 168 | 1.8
12 | CC(C)(C)S(=O)(=O)NC1CCC(C(=O)Nc2cccc(OC(F)(F)C(F)F)c2)CC1 (centres unmarked) [Compound I-126] | 13.2 | 0.6
13 | CC(C)(C)S(=O)(=O)NC1CCC(C(=O)Nc2cccc3cc4ccccc4cc23)CC1 (centres unmarked) [Compound I-129] | 174 | 2.1
14 | CC(C)(C)S(=O)(=O)NC1CCC(C(=O)Nc2ccc(C(C#N)c3ccccc3)c(Cl)c2)CC1 (centres unmarked) [Compound I-130] | 42.5 | 1.1
15 | Cn1cc(Br)c(-c2cccc(NC(=O)C3CCC(NS(=O)(=O)C(C)(C)C)CC3)c2)n1 (centres unmarked) [Compound I-131] | 34.8 | 1.1
16 | COc1cc2c(cc1NC(=O)C1CCC(NS(=O)(=O)C(C)(C)C)CC1)oc1ccccc12 (centres unmarked) [Compound I-132] | 30.4 | 2.2
17 | CC(C)(C)S(=O)(=O)NC1CCC(C(=O)Nc2cccc(Oc3ccccc3)c2)CC1 (centres unmarked) [Compound I-134] | 10 | 0.5
18 | CC(C)(C)S(=O)(=O)NC1CCC(C(=O)Nc2ccc3c(c2)C(=O)c2ccccc2-3)CC1 (centres unmarked) [Compound I-135] | 22 | 0.7
19 | CC(C)(C)S(=O)(=O)NC1CCC(C(=O)Nc2cnc3ccccc3c2)CC1 (centres unmarked) [Compound I-139] | 7.6 | 0.41
20 | COc1ccc(NC(=O)C2CCC(NS(=O)(=O)C(C)(C)C)CC2)c(Sc2ccccc2)n1 (centres unmarked) [Compound I-141] | 7.4 | 0.42
21 | CC(C)(C)S(=O)(=O)NC1CCC(C(=O)Nc2nc(-c3cccc4ccccc34)cs2)CC1 (centres unmarked) [Compound I-142] | 28 | 0.49
22 | COC(=O)c1scc(NC(=O)C2CCC(NS(=O)(=O)C(C)(C)C)CC2)c1C(=O)OC (centres unmarked) [Compound I-143] | 44 | 3.5
23 | CC(C)(C)S(=O)(=O)NC1CCC(C(=O)Nc2cccnc2Oc2ccc(F)cc2F)CC1 (centres unmarked) [Compound I-144] | 52 | 3.4
24 | CC(C)(C)S(=O)(=O)NC1CCC(C(=O)Nc2cc(-c3ccco3)[nH]n2)CC1 (centres unmarked) [Compound I-146] | 20 | 2.3
25 | COc1ccc(CCNC(=O)C2CCC(NS(=O)(=O)C(C)(C)C)CC2)cc1OC (centres unmarked) [Compound I-147] | 63 | 7.1
26 | CCN(CCNC(=O)C1CCC(NS(=O)(=O)C(C)(C)C)CC1)c1ccccc1 (centres unmarked) [Compound I-149] | 15 | 0.83
27 | CC(C)(C)S(=O)(=O)NC1CCC(C(=O)NCCSCc2c(Cl)cccc2Cl)CC1 (centres unmarked) [Compound I-150] | 5.2 | 0.17
28 | CC(C)(C)S(=O)(=O)NC1CCC(C(=O)NCCSCc2c(F)cccc2Cl)CC1 (centres unmarked) [Compound I-151] | 2.6 | 0.17

Other lines, results leading:

Row | IC50 (human NPY Y5 receptor [1]) [nM] | IC50 (human NPY Y5 receptor [2]) [nM] | Compound
29 | 13.4 | 1 | CCN(CC)c1ccc(NC(=O)C2CCC(NS(=O)(=O)C(C)(C)C)CC2)cc1 (centres unmarked) [Compound I-44]
30 | 8.4 | 0.3 | CC(C)(C)S(=O)(=O)NC1CCC(C(=O)Nc2ccc(Oc3ccccc3)cc2)CC1 (centres unmarked) [Compound I-50]
31 | 21 | 4.1 | CC(C)(C)S(=O)(=O)NC1CCC(C(=O)Nc2ccc(N3CCN(c4ccccc4)CC3)cc2)CC1 (centres unmarked) [Compound I-53]
32 | 40 | 9 | CC(C)(C)S(=O)(=O)NC1CCC(C(=O)Nc2ccc(N3CCN(c4ncccn4)CC3)cc2)CC1 (centres unmarked) [Compound I-55]
33 | 47 | 4.8 | CCOC(=O)C1CCN(c2ccc(NC(=O)C3CCC(NS(=O)(=O)C(C)(C)C)CC3)cc2)CC1 (centres unmarked) [Compound I-57]
34 | 18 | 0.69 | CC(C)(C)S(=O)(=O)NC1CCC(C(=O)Nc2ccc(N3CCc4ccccc4C3)cc2)CC1 (centres unmarked) [Compound I-60]
35 | 16 | 0.58 | CC(C)(C)S(=O)(=O)NC1CCC(C(=O)Nc2ccc(-n3cnc(Cl)c3Cl)cc2)CC1 (centres unmarked) [Compound I-62]
36 | 72 | 1.8 | CC(C)(C)S(=O)(=O)NC1CCC(C(=O)Nc2ccc(-c3ccc(N4CCCCC4)cc3)cc2)CC1 (centres unmarked) [Compound I-65]
37 | 17 | 2 | CC(=O)Nc1cccc(NC(=O)C2CCC(NS(=O)(=O)C(C)(C)C)CC2)c1 (centres unmarked) [Compound I-67]
38 | 3.4 | 0.55 | CC(C)(C)S(=O)(=O)NC1CCC(C(=O)Nc2ccc(N3CCc4ccccc43)cc2)CC1 (centres unmarked) [Compound I-75]
39 | 5.5 | 0.61 | CC(C)(C)S(=O)(=O)NC1CCC(C(=O)Nc2ccc(-n3ccc4ccccc43)cc2)CC1 (centres unmarked) [Compound I-76]
40 | 28 | 1.8 | CC(C)(C)S(=O)(=O)NC1CCC(C(=O)Nc2ccc(-n3cccn3)cc2)CC1 (centres unmarked) [Compound I-77]
41 | 25 | 0.59 | CC(C)(C)S(=O)(=O)NC1CCC(C(=O)Nc2ccc(-c3csnn3)cc2)CC1 (centres unmarked) [Compound I-79]
42 | 29 | 0.61 | CC(C)(C)S(=O)(=O)NC1CCC(C(=O)Nc2ccc(Nc3ccccc3)cc2)CC1 (centres unmarked) [Compound I-83]
43 | 25 | 1.3 | CC(C)(C)S(=O)(=O)NC1CCC(C(=O)Nc2ccc(-n3ncnn3)cc2)CC1 (centres unmarked) [Compound I-84]
44 | 100 | 3.4 | CC(C)(C)S(=O)(=O)NC1CCC(C(=O)Nc2ccc(N(CCO)CCO)cc2)CC1 (centres unmarked) [Compound I-86]
45 | 21 | 0.66 | COC(=O)CCCc1ccc(NC(=O)C2CCC(NS(=O)(=O)C(C)(C)C)CC2)cc1 (centres unmarked) [Compound I-87]
46 | 50 | 2.8 | CC(C)(C)S(=O)(=O)NC1CCC(C(=O)Nc2ccc(N3CCC(O)C3)cc2)CC1 (centres unmarked) [Compound I-90]
47 | 30.4 | 1.4 | CC(=O)c1ccc(NC(=O)C2CCC(NS(=O)(=O)C(C)(C)C)CC2)cc1 (centres unmarked) [Compound I-127]
48 | 10.2 | 1.3 | CSc1ccc(NC(=O)C2CCC(NS(=O)(=O)C(C)(C)C)CC2)cc1 (centres unmarked) [Compound I-128]
49 | 21.1 | 0.9 | CCC(C)COC(=O)/C=C/c1ccc(NC(=O)C2CCC(NS(=O)(=O)C(C)(C)C)CC2)cc1 (centres unmarked) [Compound I-133]
50 | 68.2 | 1.4 | CC(C)(C)S(=O)(=O)NC1CCC(C(=O)Nc2ccc(-c3ccc(C#N)cc3)cc2)CC1 (centres unmarked) [Compound I-137]
51 | 18.6 | 1 | Cc1ccc2cc(NC(=O)C3CCC(NS(=O)(=O)C(C)(C)C)CC3)ccc2n1 (centres unmarked) [Compound I-138]
52 | 8.9 | 0.48 | CC(C)(C)S(=O)(=O)NC1CCC(C(=O)Nc2ccc3ncccc3c2)CC1 (centres unmarked) [Compound I-140]
